Molecular target: T1, β-secretase(BACE) (Homo sapiens, UniProt P56817)
T1 construct: purchased Panvera
Test: BACE Assay-1 (MCA-substrate, IC50)
Assay type: biochemical
Conditions: procedure of Example 158; read-out: IC50 μM (158)
Protocol: The following standards are reagents were used in this assay: Sodium Citrate trisodium salt dihydrate (Sigma), Citric Acid monohydrate (Merck), PEG8000 (Sigma), MCA-substrate (Bachem), β-secretase (BACE) (Panvera), 96-well plate zwart (Costar (Elscolab)), StatVal (Bachem).
The following standard assay buffer solution was prepared and used in this assay: 0.05 M, pH 5.0 mixture of sodium citrate trisodium salt dihydrate (9.56 g), citric acid monohydrate (3.68 g) and PEG8000 (0.50 g).
The MCA-substrate stock solution was prepared by mixing 10 mg MCA-substrate with 5 mL DMSO for a final solution concentration of 2.0 mg/mL. The substrate work solution was prepared by mixing 0.1 mL substrate in 1.90 mL assay buffer for a final concentration of 0.05 mM. The β-secretase (BACE) work solution was prepared by mixing 8 μL BACE in 2 mL assay buffer for a final concentration of 10 μg/mL.
The screen procedure for this assay was as follows. 60 μL of assay buffer was pippeted into each well of a 96-well plate. To each well was then pipetted 1 μL of test compound at the selected concentration. To each well was then added 20 μL of the β-secretase work solution and 20 μL of the MCA-substrate stock solution.
The procedure for the blank was as follows. 80 μL of assay buffer was pipetted into each well to be used as a blank control. To each well was then added 1 μL of DMSO and 20 μL of MCA-substrate solution in each well.
The procedure for the positive control was as follows. 60 μL of assay buffer was pipetted into each well to be used as a positive control. To each well was then added 1 μL of DMSO, 20 μL of BACE work solution and 20 μL of MCA-substrate stock solution.
For test compounds, measured at multiple concentrations, the measured T0 and T60 values were used to calculate an IC50 value using Graphpad Software (or PIR).

T1 sequence (P56817 46-501): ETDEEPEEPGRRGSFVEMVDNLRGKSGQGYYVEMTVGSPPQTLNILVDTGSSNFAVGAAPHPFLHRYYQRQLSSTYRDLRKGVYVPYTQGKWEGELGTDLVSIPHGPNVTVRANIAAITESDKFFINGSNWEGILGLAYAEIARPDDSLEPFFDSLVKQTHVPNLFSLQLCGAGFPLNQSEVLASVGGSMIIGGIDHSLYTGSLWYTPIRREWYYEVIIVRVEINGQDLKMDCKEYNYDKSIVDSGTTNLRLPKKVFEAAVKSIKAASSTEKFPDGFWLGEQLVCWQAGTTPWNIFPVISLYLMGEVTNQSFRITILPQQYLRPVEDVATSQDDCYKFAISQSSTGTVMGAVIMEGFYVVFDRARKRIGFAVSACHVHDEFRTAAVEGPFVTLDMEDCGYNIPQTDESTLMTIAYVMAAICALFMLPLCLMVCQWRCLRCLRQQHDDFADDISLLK

Compound	IC50 [µM]
CCCN1Cc2cc(Oc3cccc(NS(=O)(=O)C(C)C)c3)ccc2N=C1N [Compound 238]	8.9
CN(C(=O)CCN1Cc2cc(C(=O)c3ccccc3)ccc2N=C1N)C1CCCc2ccccc21 (centres unmarked) [Compound 45]	2.7
CCOC(=O)N1CCC(N2Cc3cc(Oc4cccc(NS(=O)(=O)c5ccccc5)c4)ccc3N=C2N)CC1 [Compound 376]	0.17
CCCN1Cc2cc(Oc3cccc(NC(=O)c4ccccc4)c3)ccc2N=C1N [Compound 60]	5.6
CCOC(=O)N1CCC(N2Cc3cc(Oc4cccc(NS(=O)(=O)c5ccc(C)cc5OC)c4)ccc3N=C2N)CC1 [Compound 353]	0.35
CCN(C(=O)CCN1Cc2cc(C(=O)c3ccc(F)cc3)ccc2N=C1N)C1CCCCC1 [Compound 6]	9.1
CN(C(=O)CCCCN1Cc2cc(C(=O)c3ccccc3)ccc2N=C1N)C1CCCc2ccccc21 (centres unmarked) [Compound 54]	2.3
CCCN1Cc2cc(Oc3cccc(CNCCc4ccccc4)c3)ccc2N=C1N [Compound 431]	0.8
CCCN1Cc2cc(Oc3cccc(NS(=O)(=O)c4cccc(OC)c4)c3)ccc2N=C1N [Compound 271]	0.39
CCCN1Cc2cc(Oc3cccc(NS(=O)(=O)c4ccc(-c5csc(C)n5)s4)c3)ccc2N=C1N [Compound 254]	> 10
CN(C(=O)CCN1Cc2cc(C(O)c3ccccc3)ccc2N=C1N)C1CCCCC1 (centres unmarked) [Compound 32, 3-[2-Amino-6-(hydroxy-phenyl-methyl)-4H-quinazolin-3-yl]-N-cyclohexyl-N-methyl-propionamide]	14
CN(Cc1ccccc1)C(=O)CCCCN1Cc2cc(C(=O)c3ccccc3)ccc2N=C1N [Compound 47]	4.2
COCCN1Cc2cc(C(=O)c3ccccc3)ccc2N=C1N [Compound 18]	91

Now from value to compound:

IC50 [µM]	Compound
> 10	CCCN1Cc2cc(Oc3cccc(NS(=O)(=O)c4ccc(-c5cc(C(F)(F)F)on5)s4)c3)ccc2N=C1N [Compound 255]
1.6	CCCN1Cc2cc(Oc3cccc(NS(=O)(=O)CCc4cccc5ccccc45)c3)ccc2N=C1N [Compound 281]
4	CCN(C(=O)CCN1Cc2cc(C(=O)c3ccccc3)ccc2N=C1N)C1CCCCC1 [Compound 3]
5.8	CCCN1Cc2cc(Oc3cccc(C(=O)NCc4c(C)cc(C)cc4C)c3)ccc2N=C1N [Compound 423]
5.2	CCCN1Cc2cc(Oc3cccc(NS(=O)(=O)c4ccc(OC)c(OC)c4)c3)ccc2N=C1N [Compound 249]
16	CN(C(=O)CCN1Cc2cc(C(=O)c3ccccc3)ccc2N=C1N)c1ccccc1 [Compound 13]
0.49	CCCN1Cc2cc(Oc3cccc(NS(=O)(=O)c4cccs4)c3)ccc2N=C1N [Compound 241]
